These results are taken from ChEMBL document CHEMBL4418493, “N-hydroxyformamide compounds and compositions comprising them for use as BMP1, TLL1 and/or TLL2 inhibitors” (2018).

Molecules are shown by their SMILES.

Data set [1] in a line: Reduction in PICP levels in human cardiac fibroblasts incubated for 24 to 48 hrs by ELISA. It is filed as functional.
Data set [2] in a line: Drug metabolism in heparinized pooled human plasma at pH 7.5 assessed as formation of 4-(5-((((R)-2-((R)-1-(N-hydroxyformamido) propyl)heptanamido)methyl)carbamoyl)furan-2-yl)benzoic acid at 100 to 2000 ng/ml incubated up to 4 or 24 hrs by LC-MS/MS analysis. It is filed as ADME, cell-free. Conditions: pH 7.5, 24 h.
A short description of data set [3]: Reduction in mature collagen deposition levels in human cardiac fibroblasts incubated for 24 to 48 hrs by immunostaining based assay. In kind it is functional.
Data set [4] is described as follows: Drug metabolism in heparinized pooled human plasma at pH 7.5 assessed as formation of ((2-ethoxy-4-(5-((((R)-2-((R)-1-(N-hydroxyformamido)propyl)heptanamido)methyl)carbamoyl)furan-2-yl)benzamido)methyl)phosphonic acid at 100 to 2000 ng/ml incubated up to 4 or 24 hrs by LC-MS/MS analysis. Conditions: pH 7.5, 24 h. It is filed as ADME, cell-free.
Data set [5] can be described thus: Drug metabolism in heparinized pooled human plasma at pH 7.5 assessed as formation of (((3-ethoxy-5-(5-((((R)-2-((R)-1-(N-hydroxyformamido)propyl)heptanamido)methyl)carbamoyl)furan-2-yl)phenyl)(hydroxy)phosphoryl)oxy)methyl isopropyl carbonate at 100 to 2000 ng/ml incubated up to 4 or 24 hrs by LC-MS/MS analysis. It is filed as ADME, cell-free. The conditions noted are these: pH 7.5, 24 h.

Data set [6] can be described thus: Drug metabolism in heparinized pooled human plasma at pH 7.5 assessed as formation of N-(((R)-2-((R)-1-(N-hydroxyformamido)propyl)heptanamido)methyl)-5-phenylfuran-2-carboxamide at 100 to 2000 ng/ml incubated up to 4 or 24 hrs by LC-MS/MS analysis. In kind it is ADME, cell-free. The conditions noted are these: pH 7.5, 24 h.
The nature of data set [7]: Drug metabolism in heparinized pooled human plasma at pH 7.5 assessed as conversion to active compound at 100 to 2000 ng/ml incubated for 4 by LC-MS/MS analysis. It is filed as ADME, cell-free.
Data set [8] is described as follows: Stability in pH 7.96 assessed as compound purity level at 1 mg/ml heated to 40 degC and measured at 200 hrs by LC/MS analsysis. It is filed as physicochemical. The conditions noted are these: buffer, read-out: Stability.
Data set [9] has as its target T1, Bone morphogenetic protein 1 (Homo sapiens, UniProt P13497).
T1 sequence (P13497 whole entry): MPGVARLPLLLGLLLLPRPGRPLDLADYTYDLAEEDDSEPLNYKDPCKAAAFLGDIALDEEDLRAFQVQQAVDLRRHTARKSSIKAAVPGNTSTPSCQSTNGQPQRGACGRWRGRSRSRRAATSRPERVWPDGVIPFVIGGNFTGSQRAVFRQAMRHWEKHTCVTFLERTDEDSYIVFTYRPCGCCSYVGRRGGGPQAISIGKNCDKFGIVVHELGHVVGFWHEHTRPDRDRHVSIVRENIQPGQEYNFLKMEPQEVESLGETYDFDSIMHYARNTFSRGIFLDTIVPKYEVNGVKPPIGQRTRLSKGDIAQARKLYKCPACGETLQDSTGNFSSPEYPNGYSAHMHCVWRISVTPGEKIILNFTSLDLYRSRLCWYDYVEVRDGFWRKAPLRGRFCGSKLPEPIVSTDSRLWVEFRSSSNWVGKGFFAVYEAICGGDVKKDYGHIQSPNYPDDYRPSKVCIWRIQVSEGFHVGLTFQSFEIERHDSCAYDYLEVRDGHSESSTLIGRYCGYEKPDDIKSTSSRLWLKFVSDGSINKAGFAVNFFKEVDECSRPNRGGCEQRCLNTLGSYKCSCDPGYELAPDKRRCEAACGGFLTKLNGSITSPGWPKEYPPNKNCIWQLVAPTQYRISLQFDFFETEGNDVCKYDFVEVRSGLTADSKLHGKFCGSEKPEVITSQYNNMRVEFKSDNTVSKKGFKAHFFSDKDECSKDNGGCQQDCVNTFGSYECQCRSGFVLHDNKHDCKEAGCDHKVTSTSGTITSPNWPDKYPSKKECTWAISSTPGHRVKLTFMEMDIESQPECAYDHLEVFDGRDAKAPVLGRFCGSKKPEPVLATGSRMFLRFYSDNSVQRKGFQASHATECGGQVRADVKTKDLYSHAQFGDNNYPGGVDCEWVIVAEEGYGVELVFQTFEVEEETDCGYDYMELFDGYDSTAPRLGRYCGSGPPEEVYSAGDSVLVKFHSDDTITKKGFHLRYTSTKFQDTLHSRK
Kind of data set: Inhibition of C-terminal FLAG-6x-His epitope tagged and N-terminal human RAGE signal sequence tagged human BMP1 (121 to 721 amino acids) expressed in CHO-E1a cells pre-incubated for 10 mins before promyostatin peptide substrate addition and measured after 60 mins using 0.5 nM BMP1 by FRET based assay. It is filed as cell-based.

Data set [10] deals with Tolloid-like protein 1 (Homo sapiens, UniProt O43897, I156V/N221S/V284A). Nature of the data set: Inhibition of recombinant human TLL1 I156V/N221S/V284A mutant expressed in CHOE1A cells pre-incubated for 10 mins before promyostatin peptide substrate addition and measured after 60 mins by FRET based assay. It is filed as cell-based.
Chain of Tolloid-like protein 1 (O43897 148-1013 I156V/N221S/V284A limits assumed): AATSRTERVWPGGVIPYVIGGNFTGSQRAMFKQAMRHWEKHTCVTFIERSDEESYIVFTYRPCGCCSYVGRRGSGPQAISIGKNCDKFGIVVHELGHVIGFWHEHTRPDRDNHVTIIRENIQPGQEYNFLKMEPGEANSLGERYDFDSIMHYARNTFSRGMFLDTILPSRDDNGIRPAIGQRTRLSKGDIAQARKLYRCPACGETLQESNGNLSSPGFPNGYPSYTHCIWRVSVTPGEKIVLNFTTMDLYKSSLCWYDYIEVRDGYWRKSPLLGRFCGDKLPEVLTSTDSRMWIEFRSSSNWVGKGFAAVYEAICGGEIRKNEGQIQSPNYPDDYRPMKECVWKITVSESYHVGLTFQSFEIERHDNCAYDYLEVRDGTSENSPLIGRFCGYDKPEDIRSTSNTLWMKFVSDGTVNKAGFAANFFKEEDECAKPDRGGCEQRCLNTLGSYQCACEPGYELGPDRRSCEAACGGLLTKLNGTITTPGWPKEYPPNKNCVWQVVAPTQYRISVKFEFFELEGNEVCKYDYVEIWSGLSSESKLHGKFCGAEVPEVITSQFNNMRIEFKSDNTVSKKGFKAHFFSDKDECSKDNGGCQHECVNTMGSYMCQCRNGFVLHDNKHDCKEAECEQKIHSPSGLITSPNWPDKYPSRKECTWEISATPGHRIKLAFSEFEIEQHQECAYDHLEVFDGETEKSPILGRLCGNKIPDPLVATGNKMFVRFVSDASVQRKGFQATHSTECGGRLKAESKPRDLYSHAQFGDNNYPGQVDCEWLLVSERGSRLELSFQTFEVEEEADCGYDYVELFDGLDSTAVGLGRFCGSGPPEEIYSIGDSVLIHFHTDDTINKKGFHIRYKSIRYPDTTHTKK
The target in data set [11] is T2, Tolloid-like protein 2 (Homo sapiens, UniProt Q9Y6L7).
T2 sequence (Q9Y6L7 whole entry): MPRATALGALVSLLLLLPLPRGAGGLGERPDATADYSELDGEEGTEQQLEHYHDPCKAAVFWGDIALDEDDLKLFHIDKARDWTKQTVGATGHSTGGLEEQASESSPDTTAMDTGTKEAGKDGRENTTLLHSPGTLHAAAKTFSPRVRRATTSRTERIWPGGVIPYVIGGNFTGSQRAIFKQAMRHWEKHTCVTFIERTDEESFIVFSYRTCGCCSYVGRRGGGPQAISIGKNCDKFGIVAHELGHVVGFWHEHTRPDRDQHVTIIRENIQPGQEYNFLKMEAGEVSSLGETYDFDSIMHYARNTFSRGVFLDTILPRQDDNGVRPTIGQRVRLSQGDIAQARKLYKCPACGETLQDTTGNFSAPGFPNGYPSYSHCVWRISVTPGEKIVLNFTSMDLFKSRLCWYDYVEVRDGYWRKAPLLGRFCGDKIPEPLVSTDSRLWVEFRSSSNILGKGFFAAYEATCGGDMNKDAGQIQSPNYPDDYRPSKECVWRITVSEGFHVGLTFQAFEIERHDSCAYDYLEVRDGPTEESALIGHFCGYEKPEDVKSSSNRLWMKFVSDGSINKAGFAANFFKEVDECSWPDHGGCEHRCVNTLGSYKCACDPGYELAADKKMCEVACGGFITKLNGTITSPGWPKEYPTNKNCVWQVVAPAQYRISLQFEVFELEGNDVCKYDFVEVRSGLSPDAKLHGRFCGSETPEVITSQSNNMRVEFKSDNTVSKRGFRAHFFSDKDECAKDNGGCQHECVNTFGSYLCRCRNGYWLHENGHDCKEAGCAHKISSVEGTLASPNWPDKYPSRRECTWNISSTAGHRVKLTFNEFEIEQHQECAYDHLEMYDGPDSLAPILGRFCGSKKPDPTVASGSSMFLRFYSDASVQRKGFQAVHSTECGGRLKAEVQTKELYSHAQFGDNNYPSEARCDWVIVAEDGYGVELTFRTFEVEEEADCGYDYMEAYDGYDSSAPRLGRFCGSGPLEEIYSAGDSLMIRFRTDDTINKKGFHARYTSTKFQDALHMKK
Kind of data set: Inhibition of C-terminal Avi-6x-His epitope tagged and N-terminal human RAGE signal sequence tagged recombinant human TLL2 (26 to 1015 amino acids) expressed in CHOE1A cells incubated for 60 mins with promyostatin peptide substrate by FRET based assay. It is filed as cell-based.

For the molecule `CCCCC[C@@H](C(=O)NCNC(=O)c1ccc(-c2ccc(C(=O)OCCN3CCOCC3)cc2)o1)[C@@H](CC)N(O)C=O`, the IC50 in data set [1] was less than 3980 nM. Also, the Drug metabolism result in [2] is given as “Metabolite_Detected”.

In the case of `CCCCC[C@@H](C(=O)NCNC(=O)c1ccc(-c2ccc(C(=O)OCCc3ccccc3)cc2)o1)[C@@H](CC)N(O)C=O`, the IC50 in data set [1] is less than 3980 nM. Also, the Drug metabolism entry in data set [2] is on record as “Metabolite_Detected”.

Regarding `CCCCC[C@@H](C(=O)NCNC(=O)c1ccc(-c2ccc(C(=O)NCP(=O)(O)O)c(OCC)c2)o1)[C@@H](CC)N(C=O)OC(=O)c1ccc(OC)cc1`, the IC50 is less than 3980 nM in data set [1] and less than 1000 nM in [3]. The Drug metabolism result in data set [4] is given as “Metabolite_Detected”.

As to `CCCCC[C@@H](C(=O)NCNC(=O)c1ccc(-c2cc(OCC)cc(P(=O)(OCOC(=O)OC(C)C)OCOC(=O)OC(C)C)c2)o1)[C@@H](CC)N(O)C=O`, the Drug metabolism entry in data set [5] is listed as “Metabolite_Detected”.

In turn, `CCCCC[C@@H](C(=O)NCNC(=O)c1ccc(-c2ccccc2)o1)[C@@H](CC)N(C=O)OC(=O)OC` gave an IC50 in [1] of less than 3980 nM. For the same molecule, the Drug metabolism entry in data set [6] was “Metabolite_Detected”; in data set [7], greater than 10%. In addition, in [8], the remaining at 200 h, 1 mg/ml is less than 80%.

Consider `CCCCC[C@@H](C(=O)NCNC(=O)c1ccc(-c2ccccc2)o1)[C@@H](CC)N(C=O)OCOP(=O)(O)O.N.N`, for which, in [6], the Drug metabolism entry is “Metabolite_Detected”.

With `CCCCC[C@@H](C(=O)NCNC(=O)c1ccc(-c2ccccc2)o1)[C@@H](CC)N(C=O)OC(=O)OC(C)(C)C`, the IC50 in data set [1] was less than 3980 nM; in [3] it was less than 1000 nM. In addition, the Drug metabolism entry in data set [6] is recorded as “Metabolite_Detected”; in data set [7], greater than 10%. Also, the remaining at 200 h, 1 mg/ml in [8] was less than 80%.

For `CCCCC[C@@H](C(=O)NCNC(=O)c1ccc(-c2ccc(C(=O)N[C@@H](CC(=O)OC(C)(C)C)C(=O)OC(C)(C)C)c(OCC)c2)o1)[C@@H](CC)N(O)C=O`, the IC50 in data set [9] was 126 to 316 nM; in data set [10], 251 to 398 nM; in data set [11], 398 to 794 nM; in data set [1], 398 to 3980 nM; in data set [3] it was less than 1000 nM.

On to `CCCCC[C@@H](C(=O)NCNC(=O)c1ccc(-c2ccc(C(=O)NCP(=O)(O)O)c(OCC)c2)o1)[C@@H](CC)N(C=O)OC(=O)c1ccc(OC)cc1C`, for which the IC50 in [1] is less than 3980 nM. In addition, the Drug metabolism result in data set [4] is recorded as “Metabolite_Detected”.

For `CCCCC[C@@H](C(=O)NCNC(=O)c1ccc(-c2ccc(C(=O)NCP(=O)(O)O)c(OCC)c2)o1)[C@@H](CC)N(C=O)OC(=O)c1ccc(CN2CCOCC2)cc1C.O=C(O)C(F)(F)F`, the IC50 in data set [1] was less than 3980 nM. Besides, the Drug metabolism result in data set [4] is listed as “Metabolite_Detected”.

As for `CCCCC[C@@H](C(=O)NCNC(=O)c1ccc(-c2ccc(C(=O)OCC(=O)N(C)C)cc2)o1)[C@@H](CC)N(O)C=O`, in data set [1], the IC50 was less than 3980 nM. Also, in [2], the Drug metabolism entry is on record as “Metabolite_Detected”.

As to `CCCCC[C@@H](C(=O)NCNC(=O)c1ccc(-c2ccccc2)o1)[C@@H](CC)N(C=O)OC(=O)c1ccccc1`, in [1], the IC50 is less than 3980 nM. Besides, the Drug metabolism result is reported as “Metabolite_Detected” in data set [6] and greater than 10% in data set [7]. Moreover, in [8], the remaining at 200 h, 1 mg/ml was less than 80%.

In turn, `CCCCC[C@@H](C(=O)NCNC(=O)c1ccc(-c2ccccc2)o1)[C@@H](CC)N(C=O)OC(=O)C(C)(C)C` had an IC50 in data set [1] of less than 3980 nM. For the same molecule, the Drug metabolism entry is “Metabolite_Detected” in data set [6] and greater than 10% in data set [7]. The remaining at 200 h, 1 mg/ml in data set [8] is less than 80%.

With `CCCCC[C@@H](C(=O)NCNC(=O)c1ccc(-c2ccc(C(=O)NCP(=O)(O)O)c(OCC)c2)o1)[C@@H](CC)N(C=O)OC(=O)c1ccccc1`, in data set [1], the IC50 is less than 3980 nM. Further, in data set [4], the Drug metabolism entry is recorded as “Metabolite_Detected”.

Consider `CCCCC[C@@H](C(=O)NCNC(=O)c1ccc(-c2ccccc2)o1)[C@@H](CC)N(C=O)OC(=O)Cc1ccccc1`, for which, in data set [1], the IC50 is less than 3980 nM. For the same molecule, the Drug metabolism result is listed as “Metabolite_Detected” in [6] and greater than 10% in data set [7]. In addition, the remaining at 200 h, 1 mg/ml in data set [8] is less than 80%.

With `CCCCC[C@@H](C(=O)NCNC(=O)c1ccc(-c2ccc(C(=O)O)cc2)o1)[C@@H](CC)N(C=O)OC(=O)c1ccccc1`, the Drug metabolism result in data set [2] was “Metabolite_Detected”.

Turning to `CCCCC[C@@H](C(=O)NCNC(=O)c1ccc(-c2ccc(C(=O)N[C@@H](CC(=O)OC)C(=O)OC)c(OCC(=O)OC)c2)o1)[C@@H](CC)N(O)C=O`, the IC50 in data set [9] was 126 to 316 nM; in data set [10], 251 to 398 nM; in data set [11], 398 to 794 nM; in data set [1], 398 to 3980 nM. Also, in [8], the remaining at 200 h, 1 mg/ml was less than 80%.
